Data from the supplement of paper PMC11208160.

experiment: recombinant UMI read abundance after kanamycin selection (control-corrected) (log10(CPM+1)); higher = more efficient recombination; extreme values may be limits of the assay; sequences stand for … in AGTGCAGAGAAAATCGGCCAGTTTTCTCTGCCTGCAGTCCGCATGCCGTGGGACCCCTTGGGTTCTAACCTGTTGCCTAGATTTATGCAGCGGACTGCCTTTCTCCCAAAGTGATAAACCGG…AGGTTGGTTTCACT; site = the 11-nt donor
Method: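 Pooled E. coli donor-specificity screen for the IS621 bridge recombinase. Each library member carries a reprogrammed 11-nt donor and a full-length LE bridge RNA expressed in cis from the natural promoter, with a paired donor-binding loop (8-nt LDG + 4-nt RDG) and a target-binding loop fixed to T5. It is co-electroporated with a T5 target plasmid; recombinase is induced with 0.07 mM IPTG and recombinants are selected on kanamycin. UMIs are counted as CPM, averaged over two biological replicates and corrected by the unselected control. Molecule = full bridge RNA written as DNA, built from the T5 scaffold: LDG = donor specificity nt 1-8, RDG = reverse complement of nt 8-11.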
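Note: IS621 bridge recombinase in Escherichia coli cells against a fixed T5 target plasmid.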

Row | Sequence | recombinant UMI read abundance (log10)
1 | AGAGGGTCATGGACCGGTTTTCCCGGTAATCCGTATTTGGT (site AGAGGGTCTAC) | 2.54
2 | AGAGGTCCATGGACCGGTTTTCCCGGTAATCCGTATTTGTG (site AGAGGTCCTCA) | 0.00302
3 | AGAGTACCATGGACCGGTTTTCCCGGTAATCCGTATTTGCA (site ACAGTATCTTG) | 1.61
4 | AGAGTACCATGGACCGGTTTTCCCGGTAATCCGTATTTGCA (site AGAGTACCTTG) | 0
5 | AGAGTTACATGGACCGGTTTTCCCGGTAATCCGTATTTGGC (site AGAGTTACTGC) | 2.43
6 | AGATATACATGGACCGGTTTTCCCGGTAATCCGTATTTGTT (site AGATATACTAA) | 1.74
7 | AGATCATCATGGACCGGTTTTCCCGGTAATCCGTATTTGCA (site AGATCATCTTG) | 2.25
8 | AGATCATCATGGACCGGTTTTCCCGGTAATCCGTATTTGCA (site CGATCATCTAG) | 0
9 | AGATCTACATGGACCGGTTTTCCCGGTAATCCGTATTTGTG (site AAATCTACTCA) | 0.223
10 | AGATCTACATGGACCGGTTTTCCCGGTAATCCGTATTTGTG (site ACATCTACTCA) | 0.0151
11 | AGATCTACATGGACCGGTTTTCCCGGTAATCCGTATTTGTG (site AGATCTACTCA) | 0.215
12 | AGATCTACATGGACCGGTTTTCCCGGTAATCCGTATTTGTG (site ATATCTACTCA) | 0.00795
13 | AGATCTTCATGGACCGGTTTTCCCGGTAATCCGTATTTGCT (site AGATCTTCTAG) | 1.45
14 | AGATCTTCATGGACCGGTTTTCCCGGTAATCCGTATTTGCT (site CGATCATCTAG) | 0
15 | AGATGTACATGGACCGGTTTTCCCGGTAATCCGTATTTGAC (site AGATGTACTGT) | 1.96
16 | AGATTCCCATGGACCGGTTTTCCCGGTAATCCGTATTTGTG (site AGATTCCCTCA) | 0.348
17 | AGATTCCCATGGACCGGTTTTCCCGGTAATCCGTATTTGTG (site AGCTTCCCTCA) | 0.0129
18 | AGATTCCCATGGACCGGTTTTCCCGGTAATCCGTATTTGTG (site AGGTTCCCTCA) | 0.0134
19 | AGATTCCCATGGACCGGTTTTCCCGGTAATCCGTATTTGTG (site AGTTTCCCTCA) | 0.0189
20 | AGCAAGACATGGACCGGTTTTCCCGGTAATCCGTATTTGCA (site AGAAAGACTTG) | 1.86
21 | AGCAAGACATGGACCGGTTTTCCCGGTAATCCGTATTTGCA (site AGCAAGACTTG) | 2.01
22 | AGCAAGACATGGACCGGTTTTCCCGGTAATCCGTATTTGCA (site AGGAAGACTTG) | 0.969
23 | AGCAAGACATGGACCGGTTTTCCCGGTAATCCGTATTTGCA (site AGTAAGACTTG) | 0.542
24 | AGCACATCATGGACCGGTTTTCCCGGTAATCCGTATTTGGG (site AGCACATCTCC) | 0.0655

Row | Sequence | recombinant UMI read abundance (log10)
25 | AGCACCACATGGACCGGTTTTCCCGGTAATCCGTATTTGCA (site AGCACCACTTG) | 2.15
26 | AGCACGACATGGACCGGTTTTCCCGGTAATCCGTATTTGTC (site AGCACGACTGA) | 1.47
27 | AGCATAGCATGGACCGGTTTTCCCGGTAATCCGTATTTGTT (site AGCATAGCTAA) | 1.99
28 | AGCATAGCATGGACCGGTTTTCCCGGTAATCCGTATTTGTT (site AGCCTAGCTAA) | 0.0149
29 | AGCATAGCATGGACCGGTTTTCCCGGTAATCCGTATTTGTT (site AGCGTAGCTAA) | 0.0357
30 | AGCATAGCATGGACCGGTTTTCCCGGTAATCCGTATTTGTT (site AGCTTAGCTAA) | 0.00966
31 | AGCCAAACATGGACCGGTTTTCCCGGTAATCCGTATTTGAG (site AGCCAAACTCT) | 1.88
32 | AGCCAATCATGGACCGGTTTTCCCGGTAATCCGTATTTGGA (site AGCCAATCTTC) | 1.67
33 | AGCCATTCATGGACCGGTTTTCCCGGTAATCCGTATTTGAC (site AGCCATTCTGT) | 2.1
34 | AGCCATTCATGGACCGGTTTTCCCGGTAATCCGTATTTGAC (site AGCCCTTCTGT) | 0
35 | AGCCATTCATGGACCGGTTTTCCCGGTAATCCGTATTTGAC (site AGCCGTTCTGT) | 0
36 | AGCCATTCATGGACCGGTTTTCCCGGTAATCCGTATTTGAC (site AGCCTTTCTGT) | 0
37 | AGCCCATCATGGACCGGTTTTCCCGGTAATCCGTATTTGCT (site AGCCCATCTAG) | 1.83
38 | AGCCCTGCATGGACCGGTTTTCCCGGTAATCCGTATTTGGG (site AGCCCTGCTCC) | 0.336
39 | AGCCCTTCATGGACCGGTTTTCCCGGTAATCCGTATTTGAC (site AGCCATTCTGT) | 0
40 | AGCCCTTCATGGACCGGTTTTCCCGGTAATCCGTATTTGAC (site AGCCCTTCTGT) | 2.11
41 | AGCCCTTCATGGACCGGTTTTCCCGGTAATCCGTATTTGAC (site AGCCGTTCTGT) | 0
42 | AGCCCTTCATGGACCGGTTTTCCCGGTAATCCGTATTTGAC (site AGCCTTTCTGT) | 0.00743
43 | AGCCTAGCATGGACCGGTTTTCCCGGTAATCCGTATTTGGT (site AGCCTAGCTAA) | 0.168
44 | AGCCTAGCATGGACCGGTTTTCCCGGTAATCCGTATTTGGT (site AGCCTAGCTAC) | 0
45 | AGCCTAGCATGGACCGGTTTTCCCGGTAATCCGTATTTGGT (site AGCCTAGCTAG) | 0.00404
46 | AGCCTAGCATGGACCGGTTTTCCCGGTAATCCGTATTTGGT (site AGCCTAGCTAT) | 0.00284
47 | AGCCTGGCATGGACCGGTTTTCCCGGTAATCCGTATTTGTT (site AGCCTAGCTAA) | 0
48 | AGCCTGGCATGGACCGGTTTTCCCGGTAATCCGTATTTGTT (site AGCCTCGCTAA) | 0.0194

Row | Sequence | recombinant UMI read abundance (log10)
49 | AGCCTGGCATGGACCGGTTTTCCCGGTAATCCGTATTTGTT (site AGCCTGGCTAA) | 0.0154
50 | AGCCTGGCATGGACCGGTTTTCCCGGTAATCCGTATTTGTT (site AGCCTTGCTAA) | 0.0159
51 | AGCCTGTCATGGACCGGTTTTCCCGGTAATCCGTATTTGAC (site AGCCTATCTGT) | 0
52 | AGCCTGTCATGGACCGGTTTTCCCGGTAATCCGTATTTGAC (site AGCCTCTCTGT) | 0
53 | AGCCTGTCATGGACCGGTTTTCCCGGTAATCCGTATTTGAC (site AGCCTGTCTGT) | 0
54 | AGCCTGTCATGGACCGGTTTTCCCGGTAATCCGTATTTGAC (site AGCCTTTCTGT) | 0
55 | AGCCTTCCATGGACCGGTTTTCCCGGTAATCCGTATTTGAC (site AGCCTTACTGT) | 0
56 | AGCCTTCCATGGACCGGTTTTCCCGGTAATCCGTATTTGAC (site AGCCTTCCTGT) | 0
57 | AGCCTTCCATGGACCGGTTTTCCCGGTAATCCGTATTTGAC (site AGCCTTGCTGT) | 0
58 | AGCCTTCCATGGACCGGTTTTCCCGGTAATCCGTATTTGAC (site AGCCTTTCTGT) | 0
59 | AGCCTTGCATGGACCGGTTTTCCCGGTAATCCGTATTTGTT (site AGCCTAGCTAA) | 0.00391
60 | AGCCTTGCATGGACCGGTTTTCCCGGTAATCCGTATTTGTT (site AGCCTCGCTAA) | 0.0115
61 | AGCCTTGCATGGACCGGTTTTCCCGGTAATCCGTATTTGTT (site AGCCTGGCTAA) | 0.0183
62 | AGCCTTGCATGGACCGGTTTTCCCGGTAATCCGTATTTGTT (site AGCCTTGCTAA) | 0
63 | AGCCTTTCATGGACCGGTTTTCCCGGTAATCCGTATTTGAG (site AGCCTTTCTAT) | 0
64 | AGCCTTTCATGGACCGGTTTTCCCGGTAATCCGTATTTGAG (site AGCCTTTCTCT) | 0
65 | AGCCTTTCATGGACCGGTTTTCCCGGTAATCCGTATTTGAG (site AGCCTTTCTGT) | 0
66 | AGCCTTTCATGGACCGGTTTTCCCGGTAATCCGTATTTGAG (site AGCCTTTCTTT) | 0.007
67 | AGCGATACATGGACCGGTTTTCCCGGTAATCCGTATTTGAA (site AGCGATACTTT) | 1.65
68 | AGCGTAACATGGACCGGTTTTCCCGGTAATCCGTATTTGAC (site AGCGTAACTGT) | 2.86
69 | AGCGTAGCATGGACCGGTTTTCCCGGTAATCCGTATTTGCA (site AGCGTAGCTTG) | 2.87
70 | AGCGTAGCATGGACCGGTTTTCCCGGTAATCCGTATTTGTT (site AGCATAGCTAA) | 0.838
71 | AGCGTAGCATGGACCGGTTTTCCCGGTAATCCGTATTTGTT (site AGCCTAGCTAA) | 0.0274
72 | AGCGTAGCATGGACCGGTTTTCCCGGTAATCCGTATTTGTT (site AGCGTAGCTAA) | 1.33
